Like-named read-outs stand apart in the source and are kept apart here.
Assay: Plasma pharmacokinetics of lorlatinib at steady state (LC-MS/MS, non-compartmental analysis)
Type: in vivo, human
Conditions: for Lambda_z: in h-1 (unit assumed); for Tlag: unit assumed; for Cmax: read-out: Cmax; for AUC: read-out: AUC_TAU
From the text: Lorlatinib was isolated from human plasma by a liquid-iquid extraction procedure. […] A linear-log trapezoidal method was used [NT] A best-fit method was used to estimate terminal elimination and to extrapolate any plasma concentration versus time profiles to compute [NT].

[1] = Cycle 1 Day 15, Cohort A1, 115 mg/m2 per dose, individual patients
[2] = Cycle 1 Day 15, Cohort A1, 115 mg/m2 per dose, individual patients, in h (unit assumed)
[3] = Cycle 1 Day 15, Cohort A1, 115 mg/m2 per dose, individual patients, in ng/mL
[4] = Cycle 1 Day 15, Cohort A2, 100 mg per dose, individual patients
[5] = Cycle 1 Day 15, Cohort A2, 150 mg per dose, individual patients
[6] = Cycle 1 Day 15, Cohort A2, 150 mg per dose, individual patients, in h (unit assumed)
[7] = Cycle 1 Day 15, patient N0773, Cohort B2, 115 mg/m2 per dose, Dose 75
[8] = Cycle 1 Day 15, patient N0773, Cohort B2, 115 mg/m2 per dose, Dose 75, in h (unit assumed)
[9] = human, in vivo, 115 mg/m2, Cohort A1, 115 mg/m2 per dose, C1D15, Geometric Mean, N 6
[10] = human, in vivo, 115 mg/m2, Cohort A1, 115 mg/m2 per dose, C1D15, Median, N 6
[11] = human, in vivo, 115 mg/m2, Cohort B2, 115 mg/m2 per dose, C1D15, Geometric Mean, N 6
[12] = human, in vivo, 115 mg/m2, Cohort B2, 115 mg/m2 per dose, C1D15, Median, N 6
[13] = human, in vivo, 115 mg/m2, Cycle 1 Day 1, Cohort B2, 115 mg/m2 per dose

`C[C@H]1Oc2cc(cnc2N)-c2c(nn(C)c2C#N)CN(C)C(=O)c2ccc(F)cc21` [Lorlatinib, (10R)-7-amino-12-fluoro-2,10,16-trimethyl-15-oxo-10,15,16,17-tetrahydro-2H-8,4-(metheno)pyrazolo[4,3-h][2,5,11]-benzoxadiazacyclotetradecine-3-carbonitrile] showed a Swing [1] of 8.184, a Swing_Tau [1] of 8.184 and a Tlast [1] of 24 h. It also gave a Vz_F [1] of 274.2, an HL_Lambda_z [2] of 12 and a Tmin [2] of 0. For the same molecule, the Lambda_z [1] was 0.05778, the Cavg [3] was 341.9 and the Clast [3] was 147. For the same molecule, the Clast_pred [3] was 144.8, the Cmin [3] was 147 and the Ctau [3] was 147. For the same molecule, the Tlag [1] was 0 h, the AUC_TAU_%Extrap [4] was 0% and the Tlast [4] was 24 h. The Tmax (Cycle 1 Day 15, Cohort A2, 100 mg per dose, individual patients, in h (unit assumed)) was 2, the Tmax (Cycle 1 Day 15, Cohort A2, 100 mg per dose, individual patients, listed as lorlatinib, in h (unit assumed)) was 2 and the Tlag [4] was 0 h. It also gave an AUC_TAU_%Extrap [5] of 0%, a Tlast [5] of 24 h and an MRTINF_obs [6] of 20.95. The MRTINF_pred [6] was 20.85, the Tmax [6] was 2 and the Tmin [6] was 0. It also gave a Clast_pred (Cycle 1 Day 15, Cohort A2, 150 mg per dose, individual patients, in ng/mL) of 129.9, an AUCINF_pred (Cycle 1 Day 15, Cohort A2, 150 mg per dose, individual patients, in ng·h/mL (unit assumed)) of 8874 and a Tlag [5] of 0 h. The AUMC_TAU [7] was 28139.0694, the Accumulation_Index [7] was 1.002 and the CLss_F [7] was 10.79. For the same molecule, the Cmax_D [7] was 23.73, the Fluctuation% [7] was 464.7 and the Fluctuation%_Tau [7] was 613.5. For the same molecule, the Swing [7] was 3.101, the Swing_Tau [7] was 559.2 and the Tlast [7] was 6 h. The Vz_F [7] was 40.19, the HL_Lambda_z [8] was 2.582 and the Tmin [8] was 6. It also gave a Lambda_z [7] of 0.2684, a Cavg (Cycle 1 Day 15, patient N0773, Cohort B2, 115 mg/m2 per dose, Dose 75, in ng/mL) of 289.6 and a Tlag [7] of 0 h. It also gave a Tmax (human, in vivo, 60 mg/m2, Cohort A1, 60 mg/m2 per dose, C1D15, Geometric Mean, N 3, read-out: Tmax) of 1.59 h, a Cmax (human, in vivo, 75 mg/m2, Cycle 1 Day 1, Cohort A1, 75 mg/m2 per dose, individual patients) of 467 ng/mL and an AUC [9] of 8640 ng·h/mL. The Cmax [9] was 1210 ng/mL, the Tmax (human, in vivo, 115 mg/m2, Cohort A1, 115 mg/m2 per dose, C1D15, Geometric Mean, N 6, read-out: Tmax) was 1.59 h and the AUC [10] was 8570 ng·h/mL. For the same molecule, the Cmax [10] was 1280 ng/mL, the Tmax (human, in vivo, 115 mg/m2, Cohort A1, 115 mg/m2 per dose, C1D15, Median, N 6, read-out: Tmax) was 1.5 h and the AUC [11] was 7950 ng·h/mL. It also gave a Cmax [11] of 1460 ng/mL, a Tmax (human, in vivo, 115 mg/m2, Cohort B2, 115 mg/m2 per dose, C1D15, Geometric Mean, N 6, read-out: Tmax) of 1.12 h and an AUC [12] of 6940 ng·h/mL. For the same molecule, the Cmax [12] was 1560 ng/mL, the Tmax (human, in vivo, 115 mg/m2, Cohort B2, 115 mg/m2 per dose, C1D15, Median, N 6, read-out: Tmax) was 1 h and the MRT last (human, in vivo, 115 mg/m2, Cycle 1 Day 1, Cohort A1, 115 mg/m2 per dose) was 11.1 h. It also gave a Tmax (human, in vivo, 115 mg/m2, Cycle 1 Day 1, Cohort A1, 115 mg/m2 per dose, read-out: Tmax) of 1 h, an AUC(0-t) [13] of 17700 ng·h/mL and an MRT last [13] of 8.5 h.
